Values after ≈ are worked out from the molar mass of the structure shown. Where two headings read alike, the source gives them in different places. Positions of bridges follow the written chain, without caps; N, C: chain ends. Non-standard residues stand in square brackets, D forms with d. Residues, ends and D or L forms follow the SMILES beside them. *: point of attachment. Ethyl(2-palmitoyloxy) = CCCCCCCCCCCCCCCC(=O)OCC*; Ethyl(2-butanoyloxy) = CCCC(=O)OCC*; Ethyl(2-OBz) = O=C(OCC*)c1ccccc1; Lauroyl = CCCCCCCCCCCC(=O)*; X1 = CCCCCCCCCCCC(=O)OCC*; X3 = CCCCCCCC(=O)OCC*; X2 = CCCCCC(=O)OCC*; Mpa = O=C(O)CCS
What was measured:
[1] = system: Gram-positive bacterial species; conditions: range over species, ref Yang H. et al., 2016, cited from earlier work
Protocol: Despite this substitution, the L-Arg^10-teixobactin analog maintained excellent, albeit reduced potency, with MIC values ranging 1–4 μg/mL across a number of Gram-positive bacterial species (Yang H. et al., [2016]; Zong et al., [2018]). The rationale for this substitution being that the positive charge from the guanidinium group was the moiety responsible for eliciting antibacterial activity.

[2] = system: S. epidermidis ATCC 14990; conditions: cited from earlier work; for MIC (S. epidermidis): Figure 1, ref Yang H. et al. (2016), Girt et al. (2018), Zong et al. (2018)
Protocol: Figure 1 Structures of teixobactin 1 and teixobactin analogs; Arg^10-teixobactin 2, lipobactin 3, and Lys^10-farnesylbactin 4. Examples of most relevant MICs from the literature are shown above each structure. Yang H. et al. ([2016]), Girt et al. ([2018]), Zong et al. ([2018]) The End^10, Arg^10 and Lys^10 substitutions (red) and the lipid moieties of lipobactin 3 and farnesylbactin 4 (blue) are highlighted. […] Lipobactin 3 was prepared using Fmoc-SPPS as described by the Nowick group (Yang H. et al., [2016]) and purified to 95% (Yang H. et al., [2016]). […] Despite the distinct similarity to lipobactin 3, in which hydrophobic residues 1–5 of teixobactin are also replaced with ...

[3] = system: Staphylococcus aureus ATCC 29213; format: cell-based
Protocol: (§1) Microwave irradiated reactions were performed in a CEM (Matthews, NC) Discover SP, Model 908010 reactor. Dibenzofulvene measurements for the Fmoc release assay was performed in a Shimadzu (Kyoto, Japan) UV-1280 spectrophotometer at 290 nm. Analytical RP-HPLC was used to analyse final compounds and performed on a Dionex (Sunnyvale, CA) UltiMate 3000 system using a Waters (Milford, MA) Xterra MS C18 (5 μm 4.6 × 150 mm) column, and Chromeleon software was used for data processing. Buffer A: 0.1% (v/v) TFA in H2O; buffer B: 0.1% (v/v) TFA in MeCN. LC-MS was performed on an Agilent (Santa Clara, CA) 1260 Infinity with UV absorbance at λ = 214 nm equipped with an Agilent 6120 Quadrupole LC-MS using an Agilent Zorbax 300SB-C3 column (3.5 μm, 3.0 × 150 mm) column with a linear gradient of 5 – 95% B (ca. 3% B/min) at r.t., with a flow rate of 0.3 mL/min. Data processing was carried out by Agilent OpenLAB software. Buffer A: 0.1% (v/v) formic acid in H2O; buffer B: 0.1% (v/v) formic acid in MeCN. Crude peptides were purified on Dionex UltiMate 3000 preparative HPLC using Agilent Zorbax 300SB-C18 column (5 μm, 9.4 × 250 mm) and Chromeleon software was used for data processing. Ultraviolet irradiation was carried out using Spectroline (Westbury, NY) hand-held lamp EA-160/FA, 6W integrally filtered tube at 50 Hz, 0.17 A and λ = 365 nm. Biological assays were carried out inside a Thermo Fisher (Waltham, MA) HERAsafe KSP 12 biological safety cabinet on 96-well plates obtained from MediRay (Auckland, New Zealand). Mueller Hinton (MH) broth and Staphylococcus aureus ATCC 29213 was obtained from Thermo Fisher. Media and bacteria were incubated in N-Biotek (Geyonggi, South Korea) NB205L shaker.
Staphylococcus aureus ATCC 29213 was grown in non-cation adjusted Mueller Hinton (MH) broth at 37 °C with shaking (200 rpm). […] Overnight cultures of bacteria were diluted in fresh MH before adding 50 µL of inoculum to each well of the MIC plate, to achieve a final volume of 100 µL with a uniform CFU/ml of ~5 x10^5 in each well. Plates were incubated at 37 °C with shaking for 24 h before determining the MIC.

[4] = Analytical RP-HPLC retention time as measure of hydrophobicity; format: physicochemical; conditions: for RP-HPLC column retention time tR: chromatographic, analytical RP-HPLC, Waters Xterra MS C18 5 μm 4.6 × 150 mm, buffer A 0.1% TFA in H2O, buffer B 0.1% TFA in MeCN, used as measure of hydrophobicity; for Δt, retention time difference to lipobactin 3: tR of the compound minus tR of 3, same RP-HPLC C18 system; for Hydrophobicity relative to lipobactin 3 as judged by RP-HPLC retention time: in words
Protocol: We evaluated the antibiotic activity of the analogs 8a–8f against S. aureus using lipobactin 3 as a reference compound. Lipobactin 3 was prepared using Fmoc-SPPS as described by the Nowick group (Yang H. et al., [2016]) and purified to 95% (Yang H. et al., [2016]). […] To examine the reasons for the lack of bioactivity, the hydrophobicity of the S-lipidated teixobactin analogs as a function of lipid tail length were examined by analyses of their RP-HPLC retention times and compared to that of lipobactin 3 (Table 1).
as §1

[5] = system: methicillin-resistant Staphylococcus aureus (MRSA); conditions: cited from earlier work
Description: Nature has historically been the primary source of medicinally important antibiotics (Moloney, [2016]). By screening soil microorganisms, Ling et al. discovered the novel antimicrobial peptide (AMP) teixobactin (1, Figure 1), isolated from bacterium Eleftheria terrae (Ling et al., [2015]). […] Crucially, resistance in S. aureus was not induced by exposure to sub-lethal doses of teixobactin. The lack of resistance wa ... || Figure 1 Structures of teixobactin 1 and teixobactin analogs; Arg^10-teixobactin 2, lipobactin 3, and Lys^10-farnesylbactin 4. Examples of most relevant MICs from the literature are shown above each structure. Yang H. et al. ([2016]), Girt et al. ([2018]), Zong et al. ([2018]) The End^10, Arg^10 and Lys^10 substitutions (red) and the lipid moieties of lipobactin 3 and farnesylbactin 4 (blue) are highlighted.

[6] = Figure 1, ref Yang H. et al. (2016), Girt et al. (2018), Zong et al. (2018)

Molecule	MIC, S. aureus ATCC 29213 ([3]; ATCC 29213, 24 h) [µM]	RP-HPLC column retention time tR [4] [min]	Δt, retention time difference to lipobactin 3 [4]	Hydrophobicity relative to lipobactin 3 as judged by RP-HPLC retention time [4]	other results
CCCCCCCCCCCC(=O)N[C@H](C(=O)N[C@@H](CO)C(=O)N[C@H]1C(=O)N[C@@H](C)C(=O)N[C@@H](CCCNC(=N)N)C(=O)N[C@@H]([C@@H](C)CC)C(=O)O[C@H]1C)[C@@H](C)CC [Compound 3, lipobactin, reference compound] (Lauroyl-IS[dT]ARI; ester 3-C)	8 (≈ 6.59 µg/mL)	20.38	0 min	–	MIC across a range of Gram-positive bacterial species [1]: 4 to 8 µg/mL; MIC (S. epidermidis) [2]: 4 µg/mL (≈ 4.85 µM); MIC against S. epidermidis ATCC 14990 ([2]; reported MIC, ref Yang H. et al., 2016): 4 µg/mL (≈ 4.85 µM); MIC, S. aureus ATCC 29213, converted to mass concentration ([3]; ATCC 29213, 24 h): ca. 6.5 μg/mL
CCCC(=O)OCCSCCC(=O)N[C@H](C(=O)N[C@@H](CO)C(=O)N[C@H]1C(=O)N[C@@H](C)C(=O)N[C@@H](CCCNC(=N)N)C(=O)N[C@@H]([C@@H](C)CC)C(=O)O[C@H]1C)[C@@H](C)CC [Compound 8a] ([Mpa](Ethyl(2-butanoyloxy))IS[dT]ARI; ester 4-C)	> 128	14.98	-5.4 min	more hydrophilic than 3	–
CCCCCC(=O)OCCSCCC(=O)N[C@H](C(=O)N[C@@H](CO)C(=O)N[C@H]1C(=O)N[C@@H](C)C(=O)N[C@@H](CCCNC(=N)N)C(=O)N[C@@H]([C@@H](C)CC)C(=O)O[C@H]1C)[C@@H](C)CC [Compound 8b] ([Mpa](X2)IS[dT]ARI; ester 4-C)	> 128	16.88	-3.5 min	more hydrophilic than 3	–
CCCCCCCC(=O)OCCSCCC(=O)N[C@H](C(=O)N[C@@H](CO)C(=O)N[C@H]1C(=O)N[C@@H](C)C(=O)N[C@@H](CCCNC(=N)N)C(=O)N[C@@H]([C@@H](C)CC)C(=O)O[C@H]1C)[C@@H](C)CC [Compound 8c] ([Mpa](X3)IS[dT]ARI; ester 4-C)	> 128	18.89	-1.5 min	–	–
CCCCCCCCCCCC(=O)OCCSCCC(=O)N[C@H](C(=O)N[C@@H](CO)C(=O)N[C@H]1C(=O)N[C@@H](C)C(=O)N[C@@H](CCCNC(=N)N)C(=O)N[C@@H]([C@@H](C)CC)C(=O)O[C@H]1C)[C@@H](C)CC [Compound 8d] ([Mpa](X1)IS[dT]ARI; ester 4-C)	> 128	23.21	+2.8 min	more hydrophobic than 3	–
CCCCCCCCCCCCCCCC(=O)OCCSCCC(=O)N[C@H](C(=O)N[C@@H](CO)C(=O)N[C@H]1C(=O)N[C@@H](C)C(=O)N[C@@H](CCCNC(=N)N)C(=O)N[C@@H]([C@@H](C)CC)C(=O)O[C@H]1C)[C@@H](C)CC [Compound 8e] ([Mpa](Ethyl(2-palmitoyloxy))IS[dT]ARI; ester 4-C)	> 128	27.98	+7.6 min	more hydrophobic than 3	–
CC[C@H](C)[C@H](NC(=O)CCSCCOC(=O)c1ccccc1)C(=O)N[C@@H](CO)C(=O)N[C@H]1C(=O)N[C@@H](C)C(=O)N[C@@H](CCCNC(=N)N)C(=O)N[C@@H]([C@@H](C)CC)C(=O)O[C@H]1C [Compound 8f] ([Mpa](Ethyl(2-OBz))IS[dT]ARI; ester 4-C)	–	15.93	-4.5 min	–	MIC, S. aureus ATCC 29213 ([3]; non-cation adjusted Mueller Hinton broth, two-fold dilution 128 to 0.0625 µM, ~5 x10^5 CFU/ml, 37 °C with shaking, 24 h, lowest concentration at which growth did not occur): > 128 µM
L-Arg^10-teixobactin [Compound 2]	–	–	–	–	MIC values across a number of Gram-positive bacterial species ([1]; Zong et al., 2018): 1 to 4 µg/mL; MIC across a range of Gram-positive bacterial species [1]: 1 to 4 µg/mL; MIC (S. epidermidis) [2]: 1 µg/mL; MIC (MRSA) [5, 6]: 2 µg/mL
teixobactin [Compound 1]	–	–	–	–	MIC (MRSA) [5, 6]: 0.25 µg/mL; MIC (MRSA) ([5]; ref Ling et al., 2015): 0.25 µg/mL

Reference: paper PMC7417771, “Thiol-ene Enabled Chemical Synthesis of Truncated S-Lipidated Teixobactin Analogs” (Frontiers in Chemistry, 2020)
